Experimental findings from article PMC8899577, “Targeting the anti-apoptotic Bcl-2 family proteins: machine learning virtual screening and biological evaluation of new small molecules” (Theranostics, 2022) are described below.

One test relates to M14 melanoma cells. In words: Cell viability by MTT, M14. The settings on record: for cell viability M14: 20 µM for 72 h, vs control; for IC50: Homo sapiens, M14, 72 h, MTT. In kind it is cell-based, Human. The method, then:
(§1) The effect of compounds on cell viability was performed by measuring 3-[4,5-dimethylthiazol-2-yl]-2,5-diphenyltetrazolium bromide inner salt (MTT, Sigma-Aldrich) dye absorbance (solid tumor cells) or by quantization of ATP present in metabolically active cells using CellTiter-Glo® Luminescent (Promega, Fitchburg, Wisconsin, USA) (hematologic cells) following manifacturer's protocol. To evaluate the cell colony-forming ability, cell suspension from different samples was seeded into 60-mm Petri dishes. After 10 days, colonies were stained with 2% methylene blue in 95% ethanol and counted (1 colony > 50 cells). The surviving fractions were calculated as the ratio of absolute survival of the treated sample/survival of DMSO-treated control sample.
Figure 1 Cytotoxic screening of putative inhibitors of Bcl-2 anti-apoptotic proteins. (A) Flow cytometric quantification of propidium iodide exclusion assay in HL60 cells treated with the 49 putative Bcl-2 family inhibitors (50 μM, 72 h). (B) Analysis of cell viability by CellTiterGlo assay in HL60 cells treated for 24 h with concentrations ranging from 5 to 50 μM of the indicated compounds. (C-D) Analysis of cell viability by MTT assay in (C) M14 and (D) Sbcl2 melanoma cell lines treated for 72 h with concentrations ranging from 5 to 50 μM of the indicated compounds. (A-D) The results are reported as “viability of treated cells/viability of control cells (Ctrl)” × 100. Data are reported as mean of two (HL60) or three (M14 and Sbcl2) experiments ± SEM.
Figure 4 Analysis of the effect of IS20 and IS21 on cell viability, clonogenic ability and tumor sphere formation in cancer cells. (A) Analysis of cell viability by MTT assay in M14, H1299, HCT116 and MDA-MB-231 cell lines treated with IS20 or IS21 (20 μM for 72 h). The results are reported as “viability of treated cells/viability of control cells (Ctrl)” × 100. (B) Representative images and quantification of clonogenic ability evaluated in M14 and H1299 cells treated with IS20 or IS21 (20 μM for 72 h). Results are reported as percentage of clonogenicity of treated versus control cells. (C) Quantification of tumor sphere formation of M14 and H1299 cells treated with IS20 or IS21 (20 μM for 72 h). Results are reported as percentage of tumor sphere formation of treated versus control. (A-C) Data are reported as mean ± SD of three independent experiments. p-values were calculated between control (Ctrl) and treated cells, ** p < 0.001 and *** p < 0.0001.

The next test has as its system Sbcl2 melanoma cells. In words: Cell viability by MTT, Sbcl2. In kind it is cell-based. Particulars: Homo sapiens, 72 h. The method, then: as §1
Figure 1 Cytotoxic screening of putative inhibitors of Bcl-2 anti-apoptotic proteins. (A) Flow cytometric quantification of propidium iodide exclusion assay in HL60 cells treated with the 49 putative Bcl-2 family inhibitors (50 μM, 72 h). (B) Analysis of cell viability by CellTiterGlo assay in HL60 cells treated for 24 h with concentrations ranging from 5 to 50 μM of the indicated compounds. (C-D) Analysis of cell viability by MTT assay in (C) M14 and (D) Sbcl2 melanoma cell lines treated for 72 h with concentrations ranging from 5 to 50 μM of the indicated compounds. […]

The test system of test [1] is HCT116 colon cancer cells. In words: Cell viability by MTT, HCT116. The settings on record: 20 µM for 72 h, vs control. The class given is cell-based, Human. The method, then:
as §1
Figure 4 Analysis of the effect of IS20 and IS21 on cell viability, clonogenic ability and tumor sphere formation in cancer cells. […] (B) Representative images and quantification of clonogenic ability evaluated in M14 and H1299 cells treated with IS20 or IS21 (20 μM for 72 h). […] (C) Quantification of tumor sphere formation of M14 and H1299 cells treated with IS20 or IS21 (20 μM for 72 h). […] (A-C) Data are reported as mean ± SD of three independent experiments. p-values were calculated between control (Ctrl) and treated cells, ** p < 0.001 and *** p < 0.0001.

In test [2] the test system is MDA-MB-231 cells. In words: Western blot of PARP1 cleavage, MDA-MB-231. The class given is cell-based, Human. The settings on record: 72 h. The method, then:
Western blot analyses of total protein extracts were performed as previously described. Immunodetection was performed using antibodies directed to poly (ADP-ribose) polymerase (PARP; BD Biosciences San Diego, CA, USA), LC3B (Cell Signaling Technology, Danvers, MA), HSP72/73 (Calbiochem, EMD Biosciences, La Jolla, CA), Bcl-2 (SC-509, Santa Cruz Biotechnology Inc, Dallas, TX, USA), Bcl-xL (SC-271121, Santa Cruz Biotechnology Inc), Mcl-1 (SC-12756, Santa Cruz Biotechnology Inc) α-tubulin (Santa Cruz Biotechnology Inc) actin (Sigma-Aldrich, St. Louis, Missouri, USA). Anti-rabbit or anti-mouse immunoglobulin G-horseradish peroxidase-conjugated antibodies (Amersham Biosciences, Freiburg, Germany) were used as secondary antibody. Images were acquired by Image Lab Software (Bio-Rad, Hercules, CA, USA), using a ChemiDoc System instrument (Bio-Rad). […]
Figure 5 Analysis of apoptosis induction by IS20 and IS21 in leukemia, melanoma and NSCLC cells. […] (G) Flow cytometric quantification of cells in the subG1 peak of cell cycle distribution by propidium iodide staining in HL60 cell line treated with IS20 or IS21 (20 μM for 24 h) and in M14, H1299 and MDA-MB-231 cell lines treated with IS20 or IS21 (20 μM for 72 h). Data are reported as mean ± SD of three independent experiments. p-values were calculated between control (Ctrl) and treated cells, * p < 0.05. […]
Background: A western blot detects proteins with antibodies after separation by electrophoresis.

Test [3] has as its system MDA-MB-231 cells. In words: Flow cytometry subG1 peak (PI staining), MDA-MB-231. The class given is cell-based, Human. Particulars: 20 µM for 72 h. The method, then:
Flow cytometric analysis (BD Accuri™ C6, BD Biosciences) was performed to evaluate cell cycle distribution by propidium iodide (PI) staining, and cell viability by using the PI dye exclusion assay as previously reported.
Figure 5 Analysis of apoptosis induction by IS20 and IS21 in leukemia, melanoma and NSCLC cells. […] (A-F) Reported images are representative of two independent experiments with similar results. HSP72/73 or α-Tubulin are shown as loading and transferring control. (G) Flow cytometric quantification of cells in the subG1 peak of cell cycle distribution by propidium iodide staining in HL60 cell line treated with IS20 or IS21 (20 μM for 24 h) and in M14, H1299 and MDA-MB-231 cell lines treated with IS20 or IS21 (20 μM for 72 h). Data are reported as mean ± SD of three independent experiments. p-values were calculated between control (Ctrl) and treated cells, * p < 0.05. (H) Flow cytometric quantification of cells in the subG1 peak by propidium iodide staining in M14 and H1299 cell lines treated with IS20 or IS21 (20 μM, 72 h) in presence or absence of the pan caspase inhibitor z-VAD (50 μM). p-values were calculated between treated control (Ctrl) cells, # p < 0.01, ## p < 0.001 or between cells treated with IS20 or IS21 alone or in combination with z-VAD, * p < 0.05, ** p < 0.005. (G-H) Data are reported as mean of two (H) or three (G) experiments ± SD.
A general note: A flow cytometer gives signals particle by particle.

The subject of a further test is HL60 cells. In words: Western blot of LC3B-I/LC3B-II (autophagy), HL60. In kind it is cell-based, Human. The settings on record: 20 µM for 24 h.

The IC50 is the point on the concentration scale where inhibition reaches its midpoint. Read a low IC50 as higher potency. For `CCCCCOc1ccc(C2/C(=C(\O)c3ccc4c(c3)CC(C)O4)C(=O)C(=O)N2c2nnc(SCc3ccc(Cl)cc3)s2)cc1OCC` (centres unmarked) [IS21], in the test on M14 melanoma cells, the “cell viability M14” value was “significant inhibition” and the half-maximal inhibitory concentration (IC50) was 16.7 µM. The same compound displayed an IC50 with Sbcl2 melanoma cells of 19.8 µM. In addition, the “cell viability HCT116” value in test [1] is given as “not significantly perturbed”. In the test with MDA-MB-231 cells [2], the “PARP1 cleavage, MDA-MB-231” value is given as “not evident”. Also, in the test with MDA-MB-231 cells [3], the “subG1 peak of cell cycle distribution, MDA-MB-231” value is “not evident”. Further, in the test on HL60 cells, the “ratio of LC3B-II on LC3B-I, HL60” value is on record as “Increased ratio”.
For `CCCCOc1ccc(C2/C(=C(\O)c3ccc4c(c3)CC(C)O4)C(=O)C(=O)N2c2nnc(SCc3ccc(Cl)cc3)s2)cc1OCC` (centres unmarked) [IS20], the “cell viability M14” value with M14 melanoma cells was “significant inhibition”. The IC50 in the test on M14 melanoma cells was determined as 19.8 µM; in the test on Sbcl2 melanoma cells it was 21 µM. The “cell viability HCT116” value in test [1] is on record as “not significantly perturbed”. For the same compound, the “PARP1 cleavage, MDA-MB-231” value in the test with MDA-MB-231 cells [2] is “not evident”. In addition, the “subG1 peak of cell cycle distribution, MDA-MB-231” value in the test on MDA-MB-231 cells [3] was “not evident”. Besides, in the test on HL60 cells, the “ratio of LC3B-II on LC3B-I, HL60” value is recorded as “Increased ratio”.
